In publication PMC5427921, “PRL3 phosphatase active site is required for binding the putative magnesium transporter CNNM3” (Scientific Reports, 2017):

Target: T1, PRL3 (Homo sapiens, UniProt O75365)
T1 construct: gene PTP4A3; residues 1-169 in pET15b, His6 tag with thrombin site, N-terminal Gly-Ser-His extension left; wild type; expressed in E. coli
Assay: phosphorylation of catalytic Cys104 followed on Phos-tag SDS-PAGE
Type: biochemical
Conditions: no magnesium; 43 µM PRL3, 20 mM HEPES, 100 mM NaCl, 10 mM DTT, pH 7.0; 30 °C and room temperature; estimate from concentration dependence; covalent phosphocysteine formed

T1 sequence (O75365 1-169): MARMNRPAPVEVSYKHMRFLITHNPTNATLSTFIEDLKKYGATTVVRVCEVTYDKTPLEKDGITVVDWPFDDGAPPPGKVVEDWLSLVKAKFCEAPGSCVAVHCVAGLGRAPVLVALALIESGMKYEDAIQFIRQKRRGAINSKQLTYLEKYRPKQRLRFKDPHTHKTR

For `Nc1ncnc2c1ncn2[C@@H]1O[C@H](COP(=O)(O)OP(=O)(O)OP(=O)(O)O)[C@@H](O)[C@H]1O` [ATP], which Km is on record?
Its Km is > 2000 µM.
